In brackets after ≈: the same amount, converted by molar mass.
System: not listed separately
Assay: Compound was tested in vitro for antiviral activity against sandfly fever-Sicilian (SF) virus (Concentration required for the 50%inhibition of virus-induced cell death)
Type: functional
Settings: not given; call rule not given here
With `N/C(=N/CC(=O)O)c1ncn(C2O[C@H](CO)[C@@H](O)[C@H]2O)n1` (stereo partly drawn) the IC50 was 566 µg/mL (≈ 1880 µM). Work on `CCCCCCCC/N=C(/N)c1ncn(C2O[C@H](CO)[C@@H](O)[C@H]2O)n1` (stereo partly drawn) yielded an IC50 of 339 µg/mL (≈ 954 µM). For `NC(=O)CC(/N=C(/N)c1ncn(C2O[C@H](CO)[C@@H](O)[C@H]2O)n1)C(=O)O` (stereo partly drawn), the IC50 was 484 µg/mL (≈ 1350 µM).

System: not listed separately
Assay: Compound was tested in vitro for antiviral activity against Punta Toro (PT) virus (Concentration required for the 50%inhibition of virus-induced cell death); IA - Viral cytopathic effect reduced 25%-49% only.
Type: functional
Settings: not given
In the case of `N/C(=N/CC(=O)O)c1ncn(C2O[C@H](CO)[C@@H](O)[C@H]2O)n1` (stereo partly drawn), the IC50 is reported as “Not Active”.

System: dengue virus type 4
Assay: Compound was tested in vitro for antiviral activity against dengue-4- virus (Concentration required for the 50%inhibition of virus-induced cell death)
Type: functional, organism-based
Settings: not given
With `N#C/N=C(/N)c1ncn(C2O[C@H](CO)[C@@H](O)[C@H]2O)n1` (stereo partly drawn) the IC50 was 250 µg/mL (≈ 932 µM).

System: not listed separately
Assay: Compound was tested in vitro for antiviral activity against Punta Toro (PT) virus (Concentration required for the 50%inhibition of virus-induced cell death)
Type: functional
Settings: not given
With `NC(=O)CC(/N=C(/N)c1ncn(C2O[C@H](CO)[C@@H](O)[C@H]2O)n1)C(=O)O` (stereo partly drawn) the IC50 was 1600 µg/mL (≈ 4470 µM).

System: not listed separately
Assay: Compound was tested in vitro for antiviral activity against sandfly fever-Sicilian (SF) virus (Concentration required for the 50%inhibition of virus-induced cell death); inactive
Type: functional
Settings: not given
With `CNC(=O)c1ncn([C@@H]2O[C@H](CO)[C@@H](O)[C@H]2O)n1` the IC50 was “Not Active”. With `Cl.OC[C@H]1O[C@@H](n2cnc(C3=NCCCN3)n2)[C@H](O)[C@@H]1O` the IC50 was “Not Active”. In the case of `Cl.OC[C@H]1O[C@@H](n2cnc(C3=NCC(O)CN3)n2)[C@H](O)[C@@H]1O` (stereo partly drawn), the IC50 is reported as “Not Active”. With `N#C/N=C(/N)c1ncn(C2O[C@H](CO)[C@@H](O)[C@H]2O)n1` (stereo partly drawn) the IC50 was “Not Active”.

System: not listed separately
Assay: Compound was tested in vitro for antiviral activity against sandfly fever-Sicilian (SF) virus (Concentration which was cytotoxic to 50% of uninfected cells)
Settings: read-out: TC50 (the source's name)
`CNC(=O)c1ncn([C@@H]2O[C@H](CO)[C@@H](O)[C@H]2O)n1` gave a CC50 greater than 320 µg/mL. Work on `Cl.OC[C@H]1O[C@@H](n2cnc(C3=NCCCN3)n2)[C@H](O)[C@@H]1O` yielded a CC50 greater than 3200 µg/mL. Compound `Cl.OC[C@H]1O[C@@H](n2cnc(C3=NCC(O)CN3)n2)[C@H](O)[C@@H]1O` (stereo partly drawn) has a CC50 greater than 320 µg/mL. In the case of `N/C(=N/CC(=O)O)c1ncn(C2O[C@H](CO)[C@@H](O)[C@H]2O)n1` (stereo partly drawn), the CC50 is reported as greater than 3200 µg/mL. For `N#C/N=C(/N)c1ncn(C2O[C@H](CO)[C@@H](O)[C@H]2O)n1` (stereo partly drawn), the CC50 was greater than 1000 µg/mL. In the case of `CCCCCCCC/N=C(/N)c1ncn(C2O[C@H](CO)[C@@H](O)[C@H]2O)n1` (stereo partly drawn), the CC50 is reported as greater than 1000 µg/mL. With `NC(=O)CC(/N=C(/N)c1ncn(C2O[C@H](CO)[C@@H](O)[C@H]2O)n1)C(=O)O` (stereo partly drawn) the CC50 was greater than 3200 µg/mL.

System: not listed separately
Assay: Compound was tested in vitro for antiviral activity against Punta Toro (PT) virus (Concentration which was cytotoxic to 50% of uninfected cells)
Settings: read-out: TC50 (the source's name)
Compound `CNC(=O)c1ncn([C@@H]2O[C@H](CO)[C@@H](O)[C@H]2O)n1` has a CC50 greater than 320 µg/mL. In the case of `Cl.OC[C@H]1O[C@@H](n2cnc(C3=NCCCN3)n2)[C@H](O)[C@@H]1O`, the CC50 is reported as greater than 3200 µg/mL. For `Cl.OC[C@H]1O[C@@H](n2cnc(C3=NCC(O)CN3)n2)[C@H](O)[C@@H]1O` (stereo partly drawn), the CC50 was greater than 320 µg/mL. For `N/C(=N/CC(=O)O)c1ncn(C2O[C@H](CO)[C@@H](O)[C@H]2O)n1` (stereo partly drawn), the CC50 was greater than 1000 µg/mL. With `N#C/N=C(/N)c1ncn(C2O[C@H](CO)[C@@H](O)[C@H]2O)n1` (stereo partly drawn) the CC50 was greater than 1000 µg/mL. `CCCCCCCC/N=C(/N)c1ncn(C2O[C@H](CO)[C@@H](O)[C@H]2O)n1` (stereo partly drawn) gave a CC50 greater than 1000 µg/mL. Work on `NC(=O)CC(/N=C(/N)c1ncn(C2O[C@H](CO)[C@@H](O)[C@H]2O)n1)C(=O)O` (stereo partly drawn) yielded a CC50 greater than 3200 µg/mL.

System: not listed separately
Assay: Compound was tested in vitro for antiviral activity against dengue-4- virus (Concentration which was cytotoxic to 50% of uninfected cells)
Settings: read-out: TC50 (the source's name)
Compound `N#C/N=C(/N)c1ncn(C2O[C@H](CO)[C@@H](O)[C@H]2O)n1` (stereo partly drawn) has a CC50 greater than 250 µg/mL.

System: not listed separately
Assay: Compound was tested in vitro for antiviral activity against Punta Toro (PT) virus (Concentration required for the 50%inhibition of virus-induced cell death); inactive
Type: functional
Settings: not given
For `CNC(=O)c1ncn([C@@H]2O[C@H](CO)[C@@H](O)[C@H]2O)n1`, the IC50 was “Not Active”. For `Cl.OC[C@H]1O[C@@H](n2cnc(C3=NCCCN3)n2)[C@H](O)[C@@H]1O`, the IC50 was “Not Active”. With `Cl.OC[C@H]1O[C@@H](n2cnc(C3=NCC(O)CN3)n2)[C@H](O)[C@@H]1O` (stereo partly drawn) the IC50 was “Not Active”. With `N#C/N=C(/N)c1ncn(C2O[C@H](CO)[C@@H](O)[C@H]2O)n1` (stereo partly drawn) the IC50 was “Not Active”. For `CCCCCCCC/N=C(/N)c1ncn(C2O[C@H](CO)[C@@H](O)[C@H]2O)n1` (stereo partly drawn), the IC50 was “Not Active”.

System: not listed separately
Assay: Therapeutic index is expressed as ratio of TC50/IC50
Settings: read-out: TI50
In the case of `N/C(=N/CC(=O)O)c1ncn(C2O[C@H](CO)[C@@H](O)[C@H]2O)n1` (stereo partly drawn), the selectivity ratio is reported as greater than 5.66. Compound `N#C/N=C(/N)c1ncn(C2O[C@H](CO)[C@@H](O)[C@H]2O)n1` (stereo partly drawn) has a selectivity ratio greater than 1. With `CCCCCCCC/N=C(/N)c1ncn(C2O[C@H](CO)[C@@H](O)[C@H]2O)n1` (stereo partly drawn) the selectivity ratio was greater than 3.

Source: ChEMBL document CHEMBL1125541, “Synthesis and antiviral evaluation of N-carboxamidine-substituted analogues of 1-beta-D-ribofuranosyl-1,2,4-triazole-3-carboxamidine hydrochloride” (J Med Chem, 1992)
